Reference: patent publication EP1189687B1, “FLOWABLE W/O TYPE EMULSIONS WITH A HIGH WATER CONTENT CONTAINING MEDIUM POLAR LIPIDS” (Beiersdorf AG, priority 1999, dated 2000)

Experiment: Interfacial tension of medium-polar lipids against water (measure of polarity)
Assay type: physicochemical
Conditions: taken as polarity index of the lipid (the lower the tension, the more polar)
From the text: Öle und Fette unterscheiden sich unter anderem in ihrer Polarität, welche schwierig zu definieren ist. Es wurde bereits vorgeschlagen, die Grenzflächenspannung gegenüber Wasser als Maß für den Polaritätsindex eines Öls bzw. einer Ölphase anzunehmen. Dabei gilt, daß die Polarität der betreffenden Ölphase umso größer ist, je niedriger die Grenzflächenspannung zwischen dieser Ölphase und Wasser ist. Erfindungsgemäß wird die Grenzflächenspannung als ein mögliches Maß für die Polarität einer gegebenen Ölkomponente angesehen.
Die Grenzflächenspannung ist diejenige Kraft, die an einer gedachten, in der Grenzfläche zwischen zwei Phasen befindlichen Linie der Länge von einem Meter wirkt. Die physikalische Einheit für diese Grenzflächenspannung errechnet sich klassisch nach der Beziehung Kraft/Länge und wird gewöhnlich in mN/m (Millinewton geteilt durch Meter) wiedergegeben. Sie hat positives Vorzeichen, wenn sie das Bestreben hat, die Grenzfläche zu verkleinern. Im umgekehrten Falle hat sie negatives Vorzeichen.
Die nachfolgende Tabelle 1 führt mittelpolare Lipide auf, die als Einzelsubstanzen oder auch im Gemisch untereinander erfindungsgemäß vorteilhaft sind. Die betreffenden Grenzflächenspannungen gegen Wasser sind in der letzten Spalte angegeben. Es ist jedoch auch vorteilhaft, Gemische aus höher- und niederpolaren und dergleichen zu verwenden, sofern gewährleistet ist, daß die Gesamtpolarität der Ölphase im beanspruchten Bereich liegt. Tabelle 1

Structure (SMILES)	Grenzflächenspannung gegen Wasser
CCCCCCCCCCCCCCCCCC(=O)OCCCCCCCC [Cetiol® 868, Octyl Stearate]	28,4 mN/m
CCCCCCCCCCC(CO)CCCCCCCC (centres unmarked) [Eutanol® G, Octyldodecanol]	24,8 mN/m
CCCCCCCCC(CO)CCCCCC (centres unmarked) [Isofol® 16, Hexyl Decanol]	24,3 mN/m
CCCCCCCCCCCCCCCCCC(=O)OC(C)C [Isopropylstearal, Isopropyl Stearate]	21,9 mN/m
CCCCCCCCCCCCCC(=O)OCC(CCCCCCCC)CCCCCCCCCC (centres unmarked) [MOD, Octyldodeceyl Myristate]	22,1 mN/m
CCCCCCCCOC(=O)CCCCCCCCCCCCCCC(C)C [Prisorine® 2036, Octyl Isostearate]	29,7 mN/m
CCCCCCCCCCCCCCCCCCOC(=O)CCCCCC [Tegosoft® SH, Stearyl Heptanoate]	28,7 mN/m
CCCCCCCC(=O)OCC(COC(=O)CCCCCCC)OC(=O)CCCCCCC [Trivent® OCG, Tricaprylin]	20,2 mN/m
